US9029420B2, “Agomelatine and pharmaceutical compositions thereof” (Tianjin Taipu Pharmaceutical Science & Technology …, priority 2009, dated 2015)

Assay: pharmacological and pharmacodynamic studies
Details: no method or data given

Q: Which “therapeutic effects for central neural system and microcirculation” value does the source give for `COc1ccc2cccc(CCNC(C)=O)c2c1` [agomelatine crystal, N-[2-(7-methoxy-1-naphthyl)-ethyl]acetamide] here?
A: The value was “good therapeutic effects for central neural system and microcirculation”.
